Experimental data taken from the NIST ThermoML archive (doi:10.1021/acs.jced.8b00132).
Where “and” joins values, the source holds several entries; their conditions need not be identical. Identical values can stand only once.

O=C(C(F)(F)C(F)(F)F)C(F)(C(F)(F)F)C(F)(F)F [dodecafluoro-2-methylpentan-3-one]
Conditions	thermal conductivity
303.37 K, 4422 kPa, Liquid, transient hot wire	0.05844 W/m/K
303.37 K, 4436 kPa, Liquid, transient hot wire	0.05841 W/m/K
303.38 K, 22430 kPa, Liquid, transient hot wire	0.06522 W/m/K
303.38 K, 22431 kPa, Liquid, transient hot wire	0.06529 W/m/K
303.46 K, 36 kPa, Gas, transient hot wire	0.01187 W/m/K
303.46 K, 38 kPa, Gas, transient hot wire	0.01198 W/m/K
303.46 K, 91 kPa, Liquid, transient hot wire	0.05636 W/m/K
303.46 K, 92 kPa, Liquid, transient hot wire	0.05637 W/m/K
311.78 K, 60 kPa, Gas, transient hot wire	0.01276 W/m/K
311.78 K, 63 kPa, Gas, transient hot wire	0.01265 W/m/K
311.79 K, 63 kPa, Gas, transient hot wire	0.01255 W/m/K
311.95 K, 34 kPa, Gas, transient hot wire	0.01258 W/m/K
312.1 K, 61 kPa, Gas, transient hot wire	0.01276 W/m/K
312.11 K, 63 kPa, Gas, transient hot wire	0.0127 W/m/K
312.12 K, 63 kPa, Gas, transient hot wire	0.01261 W/m/K
312.3 K, 34 kPa, Gas, transient hot wire	0.01253 W/m/K
312.43 K, 61 kPa, Gas, transient hot wire	0.01283 W/m/K
312.43 K, 63 kPa, Gas, transient hot wire	0.01278 W/m/K
312.46 K, 63 kPa, Gas, transient hot wire	0.01291 W/m/K
312.66 K, 34 kPa, Gas, transient hot wire	0.01257 W/m/K
312.81 K, 61 kPa, Gas, transient hot wire	0.01287 W/m/K
312.81 K, 63 kPa, Gas, transient hot wire	0.01297 W/m/K
312.83 K, 63 kPa, Gas, transient hot wire	0.01281 W/m/K
313.06 K, 34 kPa, Gas, transient hot wire	0.01264 W/m/K
313.22 K, 61 kPa, Gas, transient hot wire	0.01297 W/m/K
313.22 K, 63 kPa, Gas, transient hot wire	0.01291 W/m/K
313.24 K, 63 kPa, Gas, transient hot wire	0.01285 W/m/K
313.49 K, 34 kPa, Gas, transient hot wire	0.01265 W/m/K
315 K, 42 kPa, Gas, hot wire	0.01266 W/m/K and 0.01273 W/m/K
315.01 K, 24 kPa, Gas, hot wire	0.01262 W/m/K and 0.01267 W/m/K
315.03 K, 68 kPa, Gas, hot wire	0.01269 W/m/K
315.05 K, 69 kPa, Gas, hot wire	0.01239 W/m/K
315.06 K, 73 kPa, Gas, hot wire	0.01282 W/m/K
315.08 K, 73 kPa, Gas, hot wire	0.0128 W/m/K
315.18 K, 42 kPa, Gas, hot wire	0.0127 W/m/K
315.19 K, 24 kPa, Gas, hot wire	0.01259 W/m/K
315.23 K, 68 kPa, Gas, hot wire	0.01265 W/m/K
315.26 K, 68 kPa, Gas, hot wire	0.01263 W/m/K
315.26 K, 73 kPa, Gas, hot wire	0.01275 W/m/K and 0.01272 W/m/K
315.38 K, 24 kPa, Gas, hot wire	0.01262 W/m/K
315.39 K, 24 kPa, Gas, hot wire	0.01261 W/m/K
315.39 K, 42 kPa, Gas, hot wire	0.01258 W/m/K and 0.0126 W/m/K
315.45 K, 73 kPa, Gas, hot wire	0.01275 W/m/K and 0.01277 W/m/K
315.48 K, 67 kPa, Gas, hot wire	0.01259 W/m/K
315.48 K, 68 kPa, Gas, hot wire	0.01258 W/m/K
315.6 K, 24 kPa, Gas, hot wire	0.01263 W/m/K
315.6 K, 42 kPa, Gas, hot wire	0.01262 W/m/K
315.61 K, 41 kPa, Gas, hot wire	0.01258 W/m/K
315.65 K, 73 kPa, Gas, hot wire	0.01278 W/m/K
315.66 K, 73 kPa, Gas, hot wire	0.01275 W/m/K
315.7 K, 67 kPa, Gas, hot wire	0.01258 W/m/K and 0.01255 W/m/K
315.82 K, 24 kPa, Gas, hot wire	0.01264 W/m/K and 0.01263 W/m/K
315.84 K, 41 kPa, Gas, hot wire	0.01259 W/m/K
315.85 K, 42 kPa, Gas, hot wire	0.01252 W/m/K
315.87 K, 73 kPa, Gas, hot wire	0.01277 W/m/K and 0.01278 W/m/K
315.91 K, 67 kPa, Gas, hot wire	0.01259 W/m/K
315.92 K, 67 kPa, Gas, hot wire	0.01258 W/m/K
321.61 K, 79 kPa, Gas, transient hot wire	0.01361 W/m/K
321.66 K, 65 kPa, Gas, transient hot wire	0.01365 W/m/K
321.69 K, 64 kPa, Gas, transient hot wire	0.01346 W/m/K
321.92 K, 78 kPa, Gas, transient hot wire	0.01359 W/m/K
321.97 K, 66 kPa, Gas, transient hot wire	0.01368 W/m/K
322.01 K, 64 kPa, Gas, transient hot wire	0.01355 W/m/K
322.24 K, 77 kPa, Gas, transient hot wire	0.01349 W/m/K
322.3 K, 66 kPa, Gas, transient hot wire	0.01358 W/m/K
322.35 K, 64 kPa, Gas, transient hot wire	0.01367 W/m/K
322.6 K, 77 kPa, Gas, transient hot wire	0.0137 W/m/K
322.68 K, 66 kPa, Gas, transient hot wire	0.01369 W/m/K
322.7 K, 62 kPa, Gas, transient hot wire	0.01363 W/m/K
322.99 K, 77 kPa, Gas, transient hot wire	0.01375 W/m/K
323.07 K, 66 kPa, Gas, transient hot wire	0.01363 W/m/K
323.09 K, 62 kPa, Gas, transient hot wire	0.0139 W/m/K
329.07 K, 105 kPa, Gas, hot wire	0.01379 W/m/K and 0.0138 W/m/K
329.1 K, 72 kPa, Gas, hot wire	0.01387 W/m/K
329.1 K, 73 kPa, Gas, hot wire	0.01371 W/m/K and 0.01367 W/m/K
329.12 K, 72 kPa, Gas, hot wire	0.01364 W/m/K
329.19 K, 27 kPa, Gas, hot wire	0.01341 W/m/K
329.19 K, 120 kPa, Gas, hot wire	0.01389 W/m/K
329.2 K, 26 kPa, Gas, hot wire	0.01335 W/m/K
329.21 K, 120 kPa, Gas, hot wire	0.01385 W/m/K
329.22 K, 27 kPa, Gas, hot wire	0.01411 W/m/K
329.23 K, 26 kPa, Gas, hot wire	0.014 W/m/K
329.23 K, 105 kPa, Gas, hot wire	0.01384 W/m/K and 0.01389 W/m/K
329.25 K, 72 kPa, Gas, hot wire	0.01368 W/m/K
